# Data as given in US10716869B2, “Radiolabeled macrocyclic EGFR inhibitor” (Oncodesign SA, priority 2016, dated 2020).
# Key:
# [1] = target: T1, NCI-H3255 tumor cell homogenates (activated EGFR) (Homo sapiens, UniProt P00533, L858R); experiment: binding competition on tumor cell homogenates
# T1 construct: endogenous in cells; host or cells: NCI-H3255
# Procedure: (§1) FIG. 1: Binding affinity constant of Compound (II) determined in competition experiments on NCI-H3255 (A) and NCI-H441 (B) cell line extracts. NCI-H3255 and NCI-H441 cell line extracts were incubated at room temperature for 90 min with Compound (II) (0.5-0.7 nM) and with increasing concentrations of Compound (IIa) (0.05 nM to 10 μM).
# (§2) The binding affinity of Compound (I) and the number of binding sites were first evaluated on NCI-H3255 and NCI-H441 tumor cell homogenates (FIG. 1). […] The number of binding sites was of the same order of magnitude (6.1±0.5×10^9 sites/μg protein).
# [2] = target: T2, NCI-H441 tumor cell homogenates (activated EGFR) (Homo sapiens, UniProt P00533); experiment: binding competition on tumor cell homogenates
# T2 construct: endogenous in cells; host or cells: NCI-H441
# Procedure: as §1, §2
# NCI-H3255 tumors = experiment: tumor uptake in xenograft-bearing Nude rats; assay type: in vivo
# Procedure: (§3) Dynamic PET scan imaging and ex vivo gamma counting were performed on three cancer xenografts (NCI-H441, NCI-H3255, NCI-H1975) in Nude rats. Xenografts were initiated in athymic, Hsd:RH-Foxnlrnu rats (Harlan, The Netherlands) by subcutaneous injection of 2×10^7 cells in 200 μL RPMI 1640 in the left and right flanks. NCI-H3255 tumor cells were injected in the right flank and NCI-H441 or NCI-H1975 in the left flank. Each study consisted in two experiments on 18 or 19 rats, for a total of 113 rats. Injection of NCI-H3255 cells was performed on DO, 24 to 72 hours after a whole-body irradiation with a […] (5 Gy, ^60Co, BioMep SARL, Bretenières, France). […] Tumors were grown until a target volume of 500-1500 mm^3 for both tumors was reached, whenever possible. All procedures using animals were approved by the Animal Care and Use Committee of Oncodesign (CNREEA agreement No 91).
# (§4) The radiotracer solution was diluted in NaCl 0.9% to prepare a solution of activity 4-6 MBq (gamma-counting experiments) or 25-35 MBq (PET imaging experiments) in a volume of 300-400 or 600-800 μL, respectively. The radioactivity in the syringe was measured before and after tracer injection to determine the injected dose (ID) to animals. Rats were anesthetized with inhaled isoflurane (2% in air) for compound injection and throughout the course of image acquisition. After compound injection, rats were allowed to wake up and put back in their cage for an uptake period ranging from 20 to 120 minutes depending on the experiment.
# (§5) For ex vivo gamma counting, after the determined uptake period or after imaging, rats were euthanized by decapitation, and the following organs were harvested and weighed: tumor, kidneys, blood, liver, heart, tail, thigh muscle, lungs, spleen and skin. Tracer distribution was assessed by determining ^18F content in each tissue with a gamma-well counter (PerkinElmer 2480 Wizard2 3). Counting data are reported as % ID per gram of tissue (% ID/g). Once radioactivity in organs was measured, some samples were prepared for immunohistochemistry.
# (§6) For imaging experiments, rats were positioned prone in a dedicated rat imaging chamber (Minerve, France). Their body temperature was maintained by a flow of warm air through the structure of the imaging bed. PET imaging was performed on a microPET eXplore Vista CT (General Electric Healthcare) system. The Vista system, equipped with 36 dual-layer LYSO/GSO phoswich detector modules, has an effective axial/transaxial field of view of 4.8/6.7 cm. The spatial resolution is <2 mm in all directions and in the whole field of view. The sensitivity is above 2.5% in the whole field of view. After a scout image to adjust the position of the field of view, a CT scan was acquired (140 μA, 40 kV). […]
# NCI-H1975 tumors = experiment: tumor uptake in xenograft-bearing Nude rats; assay type: in vivo; details: NCI-H1975, at 180 min
# Procedure: as §3, §4, §5, §6
# NCI-H441 tumors = experiment: tumor uptake in xenograft-bearing Nude rats; assay type: in vivo; details: NCI-H441, at 180 min
# Procedure: as §3, §4, §5, §6
# [3] = system: human lung tumors (wild type EGFR, L858R mutated or exon 19 deleted EGFR); experiment: autoradiography on human frozen tumor sections
# Description: Three types of human lung tumors were included: tumors harboring wild type EGFR and tumors carrying L858R mutated or exon 19 deleted EGFR genes.
# [4] = biodistribution in tumor-bearing Nude rats (ex vivo gamma counting)
# Procedure: Dynamic PET scan imaging and ex vivo gamma counting were performed on three cancer xenografts (NCI-H441, NCI-H3255, NCI-H1975) in Nude rats. Xenografts were initiated in athymic, Hsd:RH-Foxnlrnu rats (Harlan, The Netherlands) by subcutaneous injection of 2×10^7 cells in 200 μL RPMI 1640 in the left and right flanks. NCI-H3255 tumor cells were injected in the right flank and NCI-H441 or NCI-H1975 in the left flank. Each study consisted in two experiments on 18 or 19 rats, for a total of 113 rats. Injection of NCI-H3255 cells was performed on DO, 24 to 72 hours after a whole-body irradiation with a […] (5 Gy, ^60Co, BioMep SARL, Bretenières, France). […]
# The radiotracer solution was diluted in NaCl 0.9% to prepare a solution of activity 4-6 MBq (gamma-counting experiments) or 25-35 MBq (PET imaging experiments) in a volume of 300-400 or 600-800 μL, respectively. The radioactivity in the syringe was measured before and after tracer injection to determine the injected dose (ID) to animals. […]
# as §5, with “Counting data are reported as % ID per gram of tissue (% ID/g). Once radioactivity in organs was measured, some samples were prepared for immunohistochemistry.” left out
# [5] = target: T3, NCI-H3255 tumor homogenates (activated EGFR) (Homo sapiens, UniProt P00533, L858R); experiment: binding competition and binding kinetic on tumor homogenates
# T3 construct: from tissue; host or cells: NCI-H3255 tumor homogenate
# Procedure: (§7) FIG. 2: Binding affinity constant of Compound (II) determined in competition experiments on NCI-H3255 (A) and NCI-H1975 (B) tumor extracts. NCI-H3255 and NCI-H1975 tumor extracts were incubated at room temperature for 90 min with Compound (II) (0.1-0.3 nM) and with increasing concentrations of Compound (IIa) (0.25 nM to 1 μM).
# (§8) FIG. 3: Binding kinetic of Compound (II) evaluated on NCI-H3255 (A) and NCI-H1975 (B) tumor extracts. Compound (II) (1.5-2.5 nM) was incubated with extracts for 2 to 90 minutes at room temperature. Non-specific binding was evaluated in the presence of a>100 fold excess Compound (IIa).
# (§9) Similar experiments were performed on NCI-H3255 and NCI-H1975 tumor homogenates (FIG. 2). […] The number of binding sites was 1.1±1.5×10^9 and 1.6±1.8×10^9 sites/μg protein respectively in NCI-H3255 and NCI-H1975 tumor homogenates.
# (§10) The binding kinetic of Compound (I) was also assessed in NCI-H3255 and NCI-H1975 tumor homogenates (FIG. 3).
# [6] = target: T4, NCI-H1975 tumor homogenates (activated EGFR) (Homo sapiens, UniProt P00533, L858R/T790M); experiment: as above
# T4 construct: from tissue; host or cells: NCI-H1975 tumor homogenate
# Procedure: as §7, §8, §9, §10
# [7] = read-out: binding affinity (Kd)
# [8] = read-out: dissociation constant (Koff) (converted)
# T4 sequence (P00533 25-1210 T790M/L858R): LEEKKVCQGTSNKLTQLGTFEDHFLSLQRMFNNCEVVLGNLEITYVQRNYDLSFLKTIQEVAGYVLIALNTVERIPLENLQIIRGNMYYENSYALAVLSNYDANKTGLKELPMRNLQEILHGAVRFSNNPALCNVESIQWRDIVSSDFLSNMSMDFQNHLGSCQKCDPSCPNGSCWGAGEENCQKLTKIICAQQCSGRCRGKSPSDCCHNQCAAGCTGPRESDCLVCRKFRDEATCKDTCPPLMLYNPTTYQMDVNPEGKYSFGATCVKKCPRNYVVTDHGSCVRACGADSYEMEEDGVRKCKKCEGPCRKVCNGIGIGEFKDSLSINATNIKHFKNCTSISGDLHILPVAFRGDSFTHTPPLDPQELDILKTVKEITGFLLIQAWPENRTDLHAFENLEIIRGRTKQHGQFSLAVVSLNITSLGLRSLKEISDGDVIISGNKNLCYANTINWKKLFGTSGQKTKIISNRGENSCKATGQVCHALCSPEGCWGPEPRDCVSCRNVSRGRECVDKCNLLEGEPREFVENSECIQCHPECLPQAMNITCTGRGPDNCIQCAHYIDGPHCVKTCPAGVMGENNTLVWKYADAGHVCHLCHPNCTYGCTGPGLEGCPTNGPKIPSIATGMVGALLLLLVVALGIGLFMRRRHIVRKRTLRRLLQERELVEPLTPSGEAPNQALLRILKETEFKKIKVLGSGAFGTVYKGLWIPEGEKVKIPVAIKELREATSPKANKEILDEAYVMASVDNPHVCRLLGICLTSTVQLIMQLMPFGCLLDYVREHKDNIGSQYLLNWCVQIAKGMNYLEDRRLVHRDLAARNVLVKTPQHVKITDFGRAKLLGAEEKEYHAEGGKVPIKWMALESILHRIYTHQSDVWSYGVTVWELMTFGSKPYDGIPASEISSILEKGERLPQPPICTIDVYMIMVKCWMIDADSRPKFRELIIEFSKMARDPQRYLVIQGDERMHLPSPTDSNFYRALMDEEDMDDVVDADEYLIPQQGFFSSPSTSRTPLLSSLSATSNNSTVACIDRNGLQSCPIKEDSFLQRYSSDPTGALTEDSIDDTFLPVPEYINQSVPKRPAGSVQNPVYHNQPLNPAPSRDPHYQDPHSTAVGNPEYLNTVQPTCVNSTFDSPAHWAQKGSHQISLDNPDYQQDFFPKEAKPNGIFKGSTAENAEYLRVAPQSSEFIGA
# T3 sequence (P00533 25-1210 L858R): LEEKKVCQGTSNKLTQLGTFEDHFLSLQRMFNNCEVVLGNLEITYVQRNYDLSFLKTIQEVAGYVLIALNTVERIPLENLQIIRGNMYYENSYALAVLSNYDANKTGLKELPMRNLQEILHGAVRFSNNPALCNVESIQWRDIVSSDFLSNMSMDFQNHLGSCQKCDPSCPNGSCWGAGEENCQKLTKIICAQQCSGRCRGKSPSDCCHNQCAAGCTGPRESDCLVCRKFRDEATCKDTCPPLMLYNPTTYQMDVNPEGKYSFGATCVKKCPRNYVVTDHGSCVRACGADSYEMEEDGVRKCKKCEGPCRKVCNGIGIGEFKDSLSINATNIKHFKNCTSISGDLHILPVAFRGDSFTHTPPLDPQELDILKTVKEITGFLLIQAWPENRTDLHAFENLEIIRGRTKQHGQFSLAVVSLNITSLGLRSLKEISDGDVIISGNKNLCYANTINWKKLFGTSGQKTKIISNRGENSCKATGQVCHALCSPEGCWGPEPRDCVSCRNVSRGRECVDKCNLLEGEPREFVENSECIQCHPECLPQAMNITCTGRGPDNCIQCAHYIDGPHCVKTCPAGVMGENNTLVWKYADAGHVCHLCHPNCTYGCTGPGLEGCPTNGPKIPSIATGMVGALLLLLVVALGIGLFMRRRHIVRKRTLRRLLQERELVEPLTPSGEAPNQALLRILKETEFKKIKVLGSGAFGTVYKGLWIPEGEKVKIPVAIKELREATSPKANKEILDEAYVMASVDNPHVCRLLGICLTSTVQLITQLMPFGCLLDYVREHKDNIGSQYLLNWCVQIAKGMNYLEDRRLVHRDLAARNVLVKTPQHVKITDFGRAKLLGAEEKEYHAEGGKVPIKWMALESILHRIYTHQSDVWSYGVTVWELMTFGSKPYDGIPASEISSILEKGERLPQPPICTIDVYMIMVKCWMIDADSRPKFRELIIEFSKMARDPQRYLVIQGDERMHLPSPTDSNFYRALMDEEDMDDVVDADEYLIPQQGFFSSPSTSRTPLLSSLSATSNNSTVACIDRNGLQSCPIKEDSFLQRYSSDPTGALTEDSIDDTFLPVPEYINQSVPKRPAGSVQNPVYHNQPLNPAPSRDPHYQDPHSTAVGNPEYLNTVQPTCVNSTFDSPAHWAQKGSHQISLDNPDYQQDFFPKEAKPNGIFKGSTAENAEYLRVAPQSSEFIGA
# T2 sequence (P00533 25-1210): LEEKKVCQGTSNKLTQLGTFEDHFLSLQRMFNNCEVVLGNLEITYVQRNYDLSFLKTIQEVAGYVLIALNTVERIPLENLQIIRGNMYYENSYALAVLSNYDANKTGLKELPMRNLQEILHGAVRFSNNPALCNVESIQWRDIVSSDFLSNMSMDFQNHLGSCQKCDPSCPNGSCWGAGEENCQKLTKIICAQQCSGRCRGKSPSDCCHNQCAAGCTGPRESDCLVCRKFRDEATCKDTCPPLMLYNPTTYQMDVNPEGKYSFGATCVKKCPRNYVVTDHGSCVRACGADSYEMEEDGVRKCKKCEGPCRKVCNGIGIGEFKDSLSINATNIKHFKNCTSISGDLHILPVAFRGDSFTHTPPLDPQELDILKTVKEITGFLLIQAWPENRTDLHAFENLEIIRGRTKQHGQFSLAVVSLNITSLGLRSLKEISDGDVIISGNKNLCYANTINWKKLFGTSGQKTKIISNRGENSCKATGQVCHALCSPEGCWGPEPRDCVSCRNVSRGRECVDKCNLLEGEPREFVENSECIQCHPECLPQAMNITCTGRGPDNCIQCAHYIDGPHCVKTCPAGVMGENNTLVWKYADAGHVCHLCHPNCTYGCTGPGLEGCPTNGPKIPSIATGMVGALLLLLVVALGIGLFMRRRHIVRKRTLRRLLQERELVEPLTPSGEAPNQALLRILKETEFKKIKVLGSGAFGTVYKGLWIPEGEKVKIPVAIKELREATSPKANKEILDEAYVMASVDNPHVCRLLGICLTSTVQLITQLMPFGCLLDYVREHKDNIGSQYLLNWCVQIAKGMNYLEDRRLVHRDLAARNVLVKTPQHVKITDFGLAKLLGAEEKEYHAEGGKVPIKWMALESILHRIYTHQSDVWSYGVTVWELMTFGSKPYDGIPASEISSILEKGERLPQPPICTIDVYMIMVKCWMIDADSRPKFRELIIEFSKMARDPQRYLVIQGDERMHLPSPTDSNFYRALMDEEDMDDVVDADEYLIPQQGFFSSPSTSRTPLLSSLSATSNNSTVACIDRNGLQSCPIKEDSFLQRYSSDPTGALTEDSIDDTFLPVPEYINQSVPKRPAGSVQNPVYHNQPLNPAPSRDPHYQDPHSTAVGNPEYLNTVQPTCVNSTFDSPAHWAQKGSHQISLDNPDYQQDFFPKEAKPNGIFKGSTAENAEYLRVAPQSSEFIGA
# T1 sequence (P00533 25-1210 L858R): as the sequence (P00533 25-1210 L858R) above
structure (smiles),measurement,setting,value
CC(C)C1NC(=O)Cc2ccc(Cl)cc2Nc2ncnc3cc(OCC[18F])c(cc23)OCCCNC1=O (centres unmarked) [Compound (I)],number of binding sites,[1],9.1±3.1×10^9 sites/μg protein
same,Kd,[1]; [7],23.8 ± 9 nM
same,number of binding sites,[2],6.1±0.5×10^9 sites/μg protein
same,Kd,[2]; [7],25.8 ± 11.1 nM
same,normalized uptake (tumor over muscle),"NCI-H3255 tumors; NCI-H3255, at 180 min",12
same,uptake in NCI-H3255 tumors,NCI-H3255 tumors; stable between 90 min and 180 min,around 0.2 % ID/g
same,normalized uptake (tumor over muscle),NCI-H1975 tumors,3.6
same,normalized uptake (tumor over muscle),NCI-H441 tumors,2.6
same,specific binding on frozen tumor sections,[3],specific binding of Compound (I) was observed on all tumor types
same,uptake in blood,[4]; after 45 min,< 0.05 % ID/g
same,absolute uptake in tumors,[4]; at 90 min,< 0.5 % ID/g
same,number of binding sites,[5],1.1±1.5×10^9 sites/μg protein
same,Kd,[5]; read-out: binding affinity,2.8 ± 2.4 nM
same,koff,[5]; [8],0.0019 s⁻¹
same,number of binding sites,[6],1.6±1.8×10^9 sites/μg protein
same,Kd,[6]; read-out: binding affinity,4.7 ± 2 nM
same,koff,[6]; [8],0.0045 s⁻¹
